Experimental data taken from US6355799B1, “Substituted benzene compounds, process for their preparation, and herbicidal and defoliant compositions containing them” (ISK Americas Incorporated, priority 1997, dated 2002).

Columns and labels:
Assay type in all cases: in vivo
[1] = tested on: sicklepod (Cassia obtusifolia, CASOB); assay: Post-emerge test, greenhouse herbicide activity screening; conditions: post-emerge; for Post-emerge Herbicidal Activity CASOB: phytotoxicity rating 0-100 at 14 days after application; for phytotoxicity rating CASOB: 14 days after application, rating scale 0-100
Procedure, shortened: (§1)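 Fourteen days after spraying, crop and weed injury was graded visually from 0, no effect, to 100, every plant dead. Test substances were dissolved in acetone and applied at 15–1000 g ai/ha with a flat-fan nozzle. Application was either pre-emergence, one day after sowing, or post-emergence at the 2–3 leaf stage.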

[2] = tested on: lambsquarters (Chenopodium album, CHEAL); assay: as above; conditions: post-emerge; for Post-emerge Herbicidal Activity CHEAL: phytotoxicity rating 0-100 at 14 days after application; for phytotoxicity rating CHEAL: 14 days after application, rating scale 0-100
Procedure, shortened: as §1

[3] = tested on: redroot pigweed (Amaranthus retroflexus, AMARE); assay: as above; conditions: post-emerge; for Post-emerge Herbicidal Activity AMARE: phytotoxicity rating 0-100 at 14 days after application; for phytotoxicity rating AMARE: 14 days after application
Procedure, shortened: as §1

[4] = tested on: ivyleaf morningglory (Ipomoea hederacea, IPOHE); assay: as above; conditions: post-emerge; for Post-emerge Herbicidal Activity IPOHE: phytotoxicity rating 0-100 at 14 days after application; for phytotoxicity rating IPOHE: 14 days after application, rating scale 0-100
Procedure, shortened: as §1

[5] = tested on: large crabgrass (Digitaria sanguinalis, DIGSA); assay: as above; conditions: post-emerge; for Post-emerge Herbicidal Activity DIGSA: phytotoxicity rating 0-100 at 14 days after application; for phytotoxicity rating DIGSA: 14 days after application, rating scale 0-100
Procedure, shortened: as §1

[6] = tested on: velvetleaf (Abutilon theophrasti, ABUTH); assay: as above; conditions: post-emerge; for Post-emerge Herbicidal Activity ABUTH: phytotoxicity rating 0-100 at 14 days after application; for phytotoxicity rating ABUTH: 14 days after application, rating scale 0-100
Procedure, shortened: as §1

[7] = tested on: green foxtail (Setaria viridis, SETVI); assay: as above; conditions: post-emerge; for Post-emerge Herbicidal Activity SETVI: phytotoxicity rating 0-100 at 14 days after application; for phytotoxicity rating SETVI: 14 days after application, rating scale 0-100
Procedure, shortened: as §1

[8] = tested on: johnsongrass (Sorghum halepense, SORHA); assay: as above; conditions: post-emerge; for Post-emerge Herbicidal Activity SORHA: phytotoxicity rating 0-100 at 14 days after application; for phytotoxicity rating SORHA: 14 days after application, rating scale 0-100
Procedure, shortened: as §1

[9] = tested on: field corn (Zea mays L., var. Dekalb 535, CORN); assay: Post-emerge test, crop safety; conditions: post-emerge; for Post-emerge Herbicidal Activity CORN: crop damage rating 0-100 at 14 days after application; for phytotoxicity rating CORN (crop damage): 14 days after application, rating scale 0-100
Procedure, shortened: (§2)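 Compounds in acetone were track-sprayed at 15-1000 g ai/ha (187 l/ha) on sandy loam pots: pre-emerge one day after seeding, post-emerge at 2-3 leaf stage with 0.25% v/v non-ionic surfactant. Phytotoxicity was rated 14 days later on a 0 (no damage) to 100 (complete death) scale.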

[10] = tested on: upland rice (Oryza sp., var. Tebonnet, RICE); assay: Post-emerge test, crop safety; conditions: post-emerge; for Post-emerge Herbicidal Activity RICE: crop damage rating 0-100 at 14 days after application; for phytotoxicity rating RICE (crop damage): 14 days after application, rating scale 0-100
Procedure, shortened: as §2

[11] = tested on: redroot pigweed (Amaranthus retroflexus, AMARE); assay: Pre-emerge test, greenhouse herbicide activity screening
Procedure, shortened: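 Plants grown in 10 cm pots of sandy loam mix received acetone-dissolved compounds through a moving flat-fan nozzle. Doses ranged from 15 to 1000 g ai/ha. Pre-emerge pots were seeded one day earlier, post-emerge pots 8–21 days earlier. Fourteen days on, each pot was graded 0–100 for damage.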

[12] = tested on: field corn (Zea mays L., var. Dekalb 535, CORN); assay: Pre-emerge test, crop safety
Procedure, shortened: (§3)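 Rating: 0–100 visual injury, 14 DAA. Application: acetone, 187 l/ha, 15–1000 g ai/ha, flat-fan track sprayer with nozzle 40–45 cm above soil or canopy. Post-emerge runs used 0.25% v/v surfactant on 2–3 leaf plants.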

[13] = tested on: upland rice (Oryza sp., var. Tebonnet, RICE); assay: Pre-emerge test, crop safety
Procedure, shortened: as §3

[14] = tested on: sicklepod (Cassia obtusifolia, CASOB); assay: Pre-emerge test, greenhouse herbicide activity screening
Procedure, shortened: as §2

[15] = tested on: lambsquarters (Chenopodium album, CHEAL); assay: as above
Procedure, shortened: as §2

[16] = tested on: ivyleaf morningglory (Ipomoea hederacea, IPOHE); assay: as above
Procedure, shortened: as §2

[17] = tested on: large crabgrass (Digitaria sanguinalis, DIGSA); assay: as above
Procedure, shortened: as §2

[18] = tested on: barnyardgrass (Echinochloa crus-galli, ECHCG); assay: as above
Procedure, shortened: as §2

[19] = tested on: velvetleaf (Abutilon theophrasti, ABUTH); assay: as above
Procedure, shortened: as §2

[20] = tested on: green foxtail (Setaria viridis, SETVI); assay: as above
Procedure, shortened: as §2

[21] = tested on: johnsongrass (Sorghum halepense, SORHA); assay: as above
Procedure, shortened: as §2

[22] = pre-emerge, rate 63 g ai/ha, phytotoxicity rating 0-100 at 14 days after application
[23] = pre-emerge, rate 250 g ai/ha, phytotoxicity rating 0-100 at 14 days after application
[24] = crop damage, pre-emerge, rate 63 g ai/ha, phytotoxicity rating 0-100 at 14 days after application
[25] = crop damage, pre-emerge, rate 250 g ai/ha, phytotoxicity rating 0-100 at 14 days after application
[26] = 63 g ai/ha, phytotoxicity rating 0-100, 14 days after application
[27] = 250 g ai/ha, phytotoxicity rating 0-100, 14 days after application
[28] = 63 g ai/ha, crop damage rating 0-100, 14 days after application
[29] = 250 g ai/ha, crop damage rating 0-100, 14 days after application

COc1c(Cl)cc(F)c(N2C(=O)C3=C(CCCC3)C2=O)c1NC(=O)C=Cc1ccccc1 [8-31]
Post-emerge Herbicidal Activity CASOB ([1]; 63 g ai/ha): 60
Post-emerge Herbicidal Activity CASOB ([1]; 250 g ai/ha): 80
Post-emerge Herbicidal Activity CHEAL ([2]; 63 g ai/ha): 100
Post-emerge Herbicidal Activity CHEAL ([2]; 250 g ai/ha): 100
Post-emerge Herbicidal Activity AMARE ([3]; 63 g ai/ha): 100
Post-emerge Herbicidal Activity AMARE ([3]; 250 g ai/ha): 100
Post-emerge Herbicidal Activity IPOHE ([4]; 63 g ai/ha): 100
Post-emerge Herbicidal Activity IPOHE ([4]; 250 g ai/ha): 100
Post-emerge Herbicidal Activity DIGSA ([5]; 63 g ai/ha): 10
Post-emerge Herbicidal Activity DIGSA ([5]; 250 g ai/ha): 30
Post-emerge Herbicidal Activity ABUTH ([6]; 63 g ai/ha): 100
Post-emerge Herbicidal Activity ABUTH ([6]; 250 g ai/ha): 100
Post-emerge Herbicidal Activity SETVI ([7]; 63 g ai/ha): 20
Post-emerge Herbicidal Activity SETVI ([7]; 250 g ai/ha): 20
Post-emerge Herbicidal Activity SORHA ([8]; 63 g ai/ha): 10
Post-emerge Herbicidal Activity SORHA ([8]; 250 g ai/ha): 30
Post-emerge Herbicidal Activity CORN ([9]; 63 g ai/ha): 10
Post-emerge Herbicidal Activity CORN ([9]; 250 g ai/ha): 10
Post-emerge Herbicidal Activity RICE ([10]; 63 g ai/ha): 45
Post-emerge Herbicidal Activity RICE ([10]; 250 g ai/ha): 30
Pre-emerge Herbicidal Activity AMARE [11, 22]: 90
Pre-emerge Herbicidal Activity AMARE [11, 23]: 100
Pre-emerge Herbicidal Activity CORN [12, 24]: 0
Pre-emerge Herbicidal Activity CORN [12, 25]: 10
Pre-emerge Herbicidal Activity RICE [13, 24]: 0
Pre-emerge Herbicidal Activity RICE [13, 25]: 30
Pre-emerge Herbicidal Activity CASOB [14, 22]: 0
Pre-emerge Herbicidal Activity CASOB [14, 23]: 20
Pre-emerge Herbicidal Activity CHEAL [15, 22]: 100
Pre-emerge Herbicidal Activity CHEAL [15, 23]: 100
Pre-emerge Herbicidal Activity IPOHE [16, 22]: 0
Pre-emerge Herbicidal Activity IPOHE [16, 23]: 30
Pre-emerge Herbicidal Activity DIGSA [17, 22]: 0
Pre-emerge Herbicidal Activity DIGSA [17, 23]: 10
Pre-emerge Herbicidal Activity ECHCG [18, 22]: 0
Pre-emerge Herbicidal Activity ECHCG [18, 23]: 0
Pre-emerge Herbicidal Activity ABUTH [19, 22]: 60
Pre-emerge Herbicidal Activity ABUTH [19, 23]: 95
Pre-emerge Herbicidal Activity SETVI [20, 22]: 10
Pre-emerge Herbicidal Activity SETVI [20, 23]: 10
Pre-emerge Herbicidal Activity SORHA [21, 22]: 0
Pre-emerge Herbicidal Activity SORHA [21, 23]: 10

COc1c(Cl)cc(F)c(-n2c(=O)cc(C(F)(F)F)n(C)c2=O)c1NC(=O)Oc1c(C)cc(C)cc1C [4-25]
phytotoxicity rating CASOB ([1]; 63 g ai/ha): 20
phytotoxicity rating CASOB ([1]; 250 g ai/ha): 30
phytotoxicity rating CHEAL ([2]; 63 g ai/ha): 75
phytotoxicity rating CHEAL ([2]; 250 g ai/ha): 85
phytotoxicity rating AMARE ([3]; 63 g ai/ha, rating scale 0-100 (0 no damage, 100 complete death)): 70
phytotoxicity rating AMARE ([3]; 250 g ai/ha, rating scale 0-100): 100
phytotoxicity rating IPOHE ([4]; 63 g ai/ha): 40
phytotoxicity rating IPOHE ([4]; 250 g ai/ha): 60
phytotoxicity rating DIGSA ([5]; 63 g ai/ha): 0
phytotoxicity rating DIGSA ([5]; 250 g ai/ha): 0
phytotoxicity rating ABUTH ([6]; 63 g ai/ha): 70
phytotoxicity rating ABUTH ([6]; 250 g ai/ha): 95
phytotoxicity rating SETVI ([7]; 63 g ai/ha): 20
phytotoxicity rating SETVI ([7]; 250 g ai/ha): 30
phytotoxicity rating SORHA ([8]; 63 g ai/ha): 0
phytotoxicity rating SORHA ([8]; 250 g ai/ha): 10
phytotoxicity rating CORN (crop damage) ([9]; 63 g ai/ha): 5
phytotoxicity rating CORN (crop damage) ([9]; 250 g ai/ha): 15
phytotoxicity rating RICE (crop damage) ([10]; 63 g ai/ha): 0
phytotoxicity rating RICE (crop damage) ([10]; 250 g ai/ha): 20
Pre-emerge Herbicidal Activity AMARE [11, 26]: 30
Pre-emerge Herbicidal Activity AMARE [11, 27]: 100
Pre-emerge Herbicidal Activity CORN [12, 28]: 0
Pre-emerge Herbicidal Activity CORN [12, 29]: 0
Pre-emerge Herbicidal Activity RICE [13, 28]: 0
Pre-emerge Herbicidal Activity RICE [13, 29]: 0
Pre-emerge Herbicidal Activity CASOB [14, 26]: 0
Pre-emerge Herbicidal Activity CASOB [14, 27]: 20
Pre-emerge Herbicidal Activity CHEAL [15, 26]: 60
Pre-emerge Herbicidal Activity CHEAL [15, 27]: 100
Pre-emerge Herbicidal Activity IPOHE [16, 26]: 0
Pre-emerge Herbicidal Activity IPOHE [16, 27]: 0
Pre-emerge Herbicidal Activity DIGSA [17, 26]: 0
Pre-emerge Herbicidal Activity DIGSA [17, 27]: 10
Pre-emerge Herbicidal Activity ECHCG [18, 26]: 0
Pre-emerge Herbicidal Activity ECHCG [18, 27]: 0
Pre-emerge Herbicidal Activity ABUTH [19, 26]: 0
Pre-emerge Herbicidal Activity ABUTH [19, 27]: 60
Pre-emerge Herbicidal Activity SETVI [20, 26]: 0
Pre-emerge Herbicidal Activity SETVI [20, 27]: 50
Pre-emerge Herbicidal Activity SORHA [21, 26]: 0
Pre-emerge Herbicidal Activity SORHA [21, 27]: 0
